Assay results taken from US12540143B2, “Methods and compositions for targeted protein degradation” (Ranok Therapeutics (Hangzhou) Co. Ltd., priority 2019, dated 2026).

What was measured:
[1] = molecular target: BRD4 BD2 (Homo sapiens, UniProt O60885); experiment: Bromodomain Binding Assay; conditions: 10 μM Compound 074, read-out: Bromodomain Binding % of Control
[2] = molecular target: BRDT BD2 (Homo sapiens, UniProt Q58F21); experiment: Bromodomain Binding Assay; conditions: 10 μM Compound 074, read-out: Bromodomain Binding % of Control
[3] = molecular target: BRD4 BD1 (Homo sapiens, UniProt O60885); experiment: Bromodomain Binding Assay; conditions: 10 μM Compound 074, read-out: Bromodomain Binding % of Control
[4] = molecular target: CREBBP (Homo sapiens, UniProt Q92793); experiment: Bromodomain Binding Assay; conditions: 10 μM Compound 074, read-out: Bromodomain Binding % of Control
[5] = molecular target: PBRM1 BD5 (Homo sapiens, UniProt Q86U86); experiment: Bromodomain Binding Assay; conditions: 10 μM Compound 074, read-out: Bromodomain Binding % of Control
[6] = molecular target: BRD3 BD1 (Homo sapiens, UniProt Q15059); experiment: Bromodomain Binding Assay; conditions: 10 μM Compound 074, read-out: Bromodomain Binding % of Control
[7] = tested on: MV4-11 acute myeloid leukemia xenograft; experiment: MV4-11 AML xenograft model in mice; conditions: for tumor growth inhibition (FIG. 3a): after 3 weeks of dosing
Method: MV4-11 cells were plated in a 96-well tissue culture plate at a density of 4,500 cells/90 μL/well and incubated at 37° C./5% CO2 for 24 hr. Cells were then treated with compounds at various concentrations (a 10-point, 3-fold serial dilution series starting at 20 μM) with a final concentration of 0.5% DMSO/well and then incubated in 37° C./5% CO2 for 72 hr. 10 μL the cell proliferation reagent CCK-8 (WST-8) was added into each well and incubated at 37° C./5% CO2 for 3-4 hr and the absorbance at 450 nm measured with an En Vision Plate Reader.
MV4-11 acute myeloid leukemia and SU-DHL-4 diffuse large B-cell lymphoma (ATCC, #CRL-2957) cells were cultured in medium supplemented with 10% fetal bovine serum at 37° C./5% CO2. 5×10^6 MV-4-11 or 1×10^7 SU-DHL-4 cells were collected and re-suspended in 0.1 mL of serum-free media with Matrigel (1:1 v/v) per mouse for subcutaneous inoculation in isoflurane anesthetized male BALB/c nude or C.B-17 scid mice, respectively (treated in accordance with AAALAC animal welfare guidelines). When the average tumor volumes reached 100-200 mm^3, tumor volume outliers were removed and the remaining animals randomly divided into groups of 6-8 with similar average tumor volumes in each group. […] The appearance and behavior of each mouse was observed and recorded daily. Body weights and tumor volumes were measured and recorded every 2-4 days and the results were expressed as group means±SEM. Pairwise statistical comparisons between groups were performed by one-way ANOVA, and p<0.05 was considered statistically significant.

[8] = molecular target: BAZ2A (Homo sapiens, UniProt Q9UIF9); experiment: Bromodomain Binding Assay; conditions: 10 μM Compound 074, read-out: Bromodomain Binding % of Control
[9] = molecular target: BRD1 (Homo sapiens, UniProt O95696); experiment: Bromodomain Binding Assay; conditions: 10 μM Compound 074, read-out: Bromodomain Binding % of Control
[10] = molecular target: BRD9 (Homo sapiens, UniProt Q9H8M2); experiment: Bromodomain Binding Assay; conditions: 10 μM Compound 074, read-out: Bromodomain Binding % of Control
[11] = molecular target: HSP90α (Homo sapiens, UniProt P07900); experiment: HSP90α Binding Fluorescent Polarization (FP) Assay; conditions: as shown in Table 1
Method: HSP90α Binding Fluorescent Polarization (FP) Assay
A master mix was prepared with assay buffer, BSA and FITC-geldanamycin. In a 96-well plate, a serial 3-fold dilution of each compound was prepared ranging from 40 μM down until 2.0 nM. Also in a 96-well plate, recombinant HSP90α protein was diluted to 28 μg/ml. Then, in a 384-well plate, 10 μl of master mix and 5 μl of compound dilution were added per well to duplicate wells and mixed by brief shaking. Then 5 μl of diluted HSP90α protein was added per well, mixed by brief shaking, incubated at 25° C. for 30, 60 and 120 min and fluorescence was measured on an En Vision Plate Reader. Background-subtracted mP values were calculated from En Vision raw data and a four-parameter “log[inhibitor] vs. response” curve was fitted using GraphPad Prism 7.0.

[12] = molecular target: T1, BRWD1 BD2 (Homo sapiens, UniProt Q9NSI6); experiment: Bromodomain Binding Assay; conditions: 10 μM Compound 074, read-out: Bromodomain Binding % of Control
T1 construct: made in house; host or cells: T7 phage grown in E. coli host derived from BL21

[13] = molecular target: T2, TRIM133 (Homo sapiens, UniProt Q9UPN9); experiment: Bromodomain Binding Assay; conditions: 10 μM Compound 074, read-out: Bromodomain Binding % of Control
T2 construct: made in house; host or cells: T7 phage grown in E. coli host derived from BL21

[14] = molecular target: ATAD2B (Homo sapiens, UniProt Q9ULI0); experiment: Bromodomain Binding Assay; conditions: 10 μM Compound 074, read-out: Bromodomain Binding % of Control
[15] = molecular target: BRPF3 (Homo sapiens, UniProt Q9ULD4); experiment: Bromodomain Binding Assay; conditions: 10 μM Compound 074, read-out: Bromodomain Binding % of Control
[16] = molecular target: BRD2 BD2 (Homo sapiens, UniProt P25440); experiment: Bromodomain Binding Assay; conditions: 10 μM Compound 074, read-out: Bromodomain Binding % of Control
[17] = molecular target: ATAD2 (Homo sapiens, UniProt Q6PL18); experiment: Bromodomain Binding Assay; conditions: 10 μM Compound 074, read-out: Bromodomain Binding % of Control
[18] = Pharmacokinetics and tissue distribution in the MV4-11 xenograft model in mice; type: in vivo; conditions: for AUC(0-∞): 5 mg/kg single intravenous dose
Method: Pharmacokinetics and Tissue Distribution
15 female CB-17 SCID mice (treated in accordance with AAALAC animal welfare guidelines) were weighed and administered 5 mg/kg of compound 074 by a single intravenous injection. 0.10 mL of blood was collected from each mouse by submandibular vein and sodium heparin was added as an anticoagulant. Samples were collected before compound administration, and at 1 hr, 6 hr 24 hr and 48 hr time points after administration, with 3 mice sampled per time point. After collection, samples were placed on ice and the animals sacrificed to collect tumor and normal tissues. The method development and analysis of all samples were performed by the analytical laboratory at Shanghai Medicilon Inc. Intra-day accuracy evaluation of samples for quality control was carried out during sample analysis and a quality control accuracy of more than 66.7% of samples was required between to be 80-120%. Pharmacokinetic parameters were calculated using Phoenix WinNonlin7.0 software.

Sequence of BRD3 BD1 (Q15059 34-140 limits assumed): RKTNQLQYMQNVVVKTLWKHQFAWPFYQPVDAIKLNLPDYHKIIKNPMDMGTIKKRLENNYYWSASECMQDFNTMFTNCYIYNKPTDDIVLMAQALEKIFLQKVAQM
T2 sequence (Q9UPN9 957-1080 limits assumed): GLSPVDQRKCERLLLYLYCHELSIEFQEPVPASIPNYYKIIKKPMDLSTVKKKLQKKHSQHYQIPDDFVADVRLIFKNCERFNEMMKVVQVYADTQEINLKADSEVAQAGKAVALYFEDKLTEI
T1 sequence (Q9NSI6 1313-1418 limits assumed): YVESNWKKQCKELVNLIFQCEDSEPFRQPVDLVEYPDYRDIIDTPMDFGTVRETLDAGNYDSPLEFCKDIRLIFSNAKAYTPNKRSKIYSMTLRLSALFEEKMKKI
Sequence of BRPF3 (Q9ULD4 589-693 limits assumed): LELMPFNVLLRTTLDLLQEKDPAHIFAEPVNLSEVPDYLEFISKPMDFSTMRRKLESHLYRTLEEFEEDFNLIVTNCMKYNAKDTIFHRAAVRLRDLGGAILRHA
Sequence of BRD2 BD2 (P25440 344-453 limits assumed): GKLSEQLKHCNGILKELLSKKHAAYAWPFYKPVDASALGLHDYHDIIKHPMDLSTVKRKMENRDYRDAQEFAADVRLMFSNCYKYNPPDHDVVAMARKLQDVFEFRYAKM
Sequence of ATAD2 (Q6PL18 980-1092 limits assumed): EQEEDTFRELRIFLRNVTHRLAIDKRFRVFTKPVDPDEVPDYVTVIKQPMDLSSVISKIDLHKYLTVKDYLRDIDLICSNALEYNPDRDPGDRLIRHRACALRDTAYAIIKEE
Sequence of BRD1 (O95696 562-666 limits assumed): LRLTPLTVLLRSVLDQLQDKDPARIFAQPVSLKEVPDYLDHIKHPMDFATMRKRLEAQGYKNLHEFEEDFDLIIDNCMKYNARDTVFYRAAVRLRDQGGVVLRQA
Sequence of CREBBP (Q92793 1085-1192 limits assumed): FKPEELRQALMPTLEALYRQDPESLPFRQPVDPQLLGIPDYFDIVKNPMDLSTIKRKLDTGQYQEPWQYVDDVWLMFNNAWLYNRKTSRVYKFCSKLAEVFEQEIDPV
Sequence of BRD9 (Q9H8M2 136-240 limits assumed): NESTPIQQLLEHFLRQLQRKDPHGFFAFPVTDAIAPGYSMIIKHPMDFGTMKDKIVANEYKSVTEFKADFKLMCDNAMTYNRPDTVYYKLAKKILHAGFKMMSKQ
Sequence of BAZ2A (Q9UIF9 1793-1897 limits assumed): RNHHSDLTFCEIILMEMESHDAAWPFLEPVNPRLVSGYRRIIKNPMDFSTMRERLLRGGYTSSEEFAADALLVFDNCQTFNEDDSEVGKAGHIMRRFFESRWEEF
Sequence of PBRM1 BD5 (Q86U86 653-763 limits assumed): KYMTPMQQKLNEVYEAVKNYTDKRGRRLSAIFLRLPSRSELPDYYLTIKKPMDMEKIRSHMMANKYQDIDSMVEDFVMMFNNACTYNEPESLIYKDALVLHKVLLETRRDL
Sequence of ATAD2B (Q9ULI0 951-1066 limits assumed): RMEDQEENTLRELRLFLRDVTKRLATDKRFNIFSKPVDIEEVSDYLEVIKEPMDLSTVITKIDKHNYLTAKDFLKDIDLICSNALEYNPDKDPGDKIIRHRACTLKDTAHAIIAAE

Cc1sc2c(c1C)C(c1ccc(Cl)cc1)=N[C@@H](CC(=O)N1CCC(CN3CCN(Cc4ccc(-n5c(O)nnc5-c5cc(C(C)C)c(O)cc5O)cc4)CC3)CC1)c1nnc(C)n1-2.Cl [Compound 74, (S)-2-(4-(4-chlorophenyl)-2,3,9-trimethyl-6H-thieno[3,2-f][1,2,4]triazolo[4,3-a][1,4]diazepin-6-yl)-1-(4-((4-(4-(3-(2,4-dihydroxy-5-isopropylphenyl)-5-hydroxy-4H-1,2,4-triazol-4-yl)benzyl)piperazin-1-yl)methyl)piperidin-1-yl)ethan-1-one hydrochloride] gave a remaining activity at 10 µM [1] of less than 10%, a remaining activity at 10 µM [2] of less than 10% and a remaining activity at 10 µM [3] of less than 10%. It also gave a remaining activity at 10 µM [4] greater than 75%, a remaining activity at 10 µM [5] greater than 75% and a remaining activity at 10 µM [6] of less than 10%. The “animals tumor free at the end of the study” value ([7]; 50 mg/kg intravenous 1×/week) was 1 out of 6, the “tumor growth inhibition (FIG. 3a)” value ([7]; 50 mg/kg intravenous 1×/week) was “significant tumor growth inhibition” and the “animals tumor free at the end of the study” value ([7]; 100 mg/kg intravenous 1×/week) was 4 out of 6. For the same compound, the “tumor growth inhibition (FIG. 3a)” value ([7]; 100 mg/kg intravenous 1×/week) was “significant tumor growth inhibition”, the “animal deaths and body weights (FIG. 3b)” value ([7]; any group, MV4-11 xenograft) was “No animal deaths or significant effects on body weights were observed” and the remaining activity at 10 µM [8] was greater than 75%. The remaining activity at 10 µM [9] was greater than 75%, the remaining activity at 10 µM [10] was greater than 75% and the “potency in binding to HSP90 (in words)” value [11] was “moderate potency”. For the same compound, the remaining activity at 10 µM [12] was greater than 75%, the remaining activity at 10 µM [13] was greater than 75% and the remaining activity at 10 µM [14] was greater than 75%. The remaining activity at 10 µM [15] was greater than 75%, the remaining activity at 10 µM [16] was less than 10% and the remaining activity at 10 µM [17] was greater than 75%. The “AUC(0-∞)” value ([18]; Heart) was 8828.71 ng·h/g, the “AUC(0-∞)” value ([18]; Liver) was 24415.49 ng·h/g and the “AUC(0-∞)” value ([18]; Lung) was 14199.86 ng·h/g. The “AUC(0-∞)” value ([18]; Tumor) was 23857.20 ng·h/g and the “half-life in tumors relative to plasma and other organs” value ([18]; times as long as in plasma and other organs) was 4.6-9.5 times.
